Measured values published in ChEMBL document CHEMBL5649166, “RIP3 induces apoptosis independent of pronecrotic kinase activity” (Mol Cell, 2014).
Activity calls are given as the source filed them. The rule behind the calls is not given here.

Key:
[1] = tested on: MEF; experiment: Induction of apoptosis in RIP3-/- MEF cells incubated for 18 hrs by Cell Titer-Glo luminescent cell viability assay; format: toxicity, cell-based; settings: mouse
[2] = tested on: 3T3SA; experiment: Induction of apoptosis in mouse 3T3SA cells incubated for 18 hrs in presence of 3-MA by Cell Titer-Glo luminescent cell viability assay; format: toxicity, cell-based
[3] = tested on: 3T3SA; experiment: Induction of apoptosis in mouse 3T3SA cells transfected with RIP3 shRNA assessed as accumulation of cleaved caspase-3 by measuring percentage of cleaved caspase-3 positive cells measured after 8 hrs by immunoblot analysis (reference value: 11%); format: toxicity, cell-based
[4] = tested on: 3T3SA; experiment: Induction of apoptosis in RIP3shRNA transfected mouse 3T3SA cells co-transfected with shRNA-resistant RIP3 K51A mutant pre-tranfected for 16 hrs followed by compound addition and measured after 18 hrs in presence of zVAD by Cell Titer-Glo luminescent cell viability assay; format: toxicity, cell-based
[5] = tested on: 3T3SA; experiment: Induction of apoptosis in mouse 3T3SA cells assessed as increase in caspase3/7 proteolytic activity incubated for 2.5 hrs; format: toxicity, cell-based
[6] = tested on: 3T3SA; experiment: Induction of apoptosis in vICA expression plasmid transfected mouse 3T3SA cells co-transfected with shRNA-resistant empty vector incubated for 12 hrs by Cell Titer-Glo luminescent cell viability assay; format: toxicity, cell-based
[7] = tested on: SVEC4-10; experiment: Inhibition of DAI-induced necroptosis in MCMV M45mutRHIM infected mouse SVEC4-10 cells assessed as increase in cell viability at 10 uM incubated for 18 hrs by Cell Titer-Glo luminescent cell viability assay; format: functional, cell-based
[8] = tested on: 3T3SA; experiment: Induction of apoptosis in vICA expression plasmid transfected mouse 3T3SA cells co-transfected with shRNA-resistant RIP3 incubated for 12 hrs by Cell Titer-Glo luminescent cell viability assay; format: toxicity, cell-based
[9] = tested on: BMDM; experiment: Induction of apoptosis in mouse BMDM cells expressing wildtype RIP3 incubated for 18 hrs by Cell Titer-Glo luminescent cell viability assay; format: toxicity, cell-based
[10] = tested on: MEF; experiment: Induction of apoptosis in MEF cells expressing RIP1 K45A/K45A mutant incubated for 18 hrs by Cell Titer-Glo luminescent cell viability assay; format: toxicity, cell-based; settings: mouse
[11] = tested on: L929; experiment: Inhibition of TLR-3 induced necroptosis in mouse L929 cells assessed as increase in cell viability at higher concentration incubated for 18 hrs in presence of poly(I:C) by Cell Titer-Glo luminescent cell viability assay; format: functional, cell-based
[12] = tested on: 3T3SA; experiment: Induction of apoptosis in RIP3shRNA transfected mouse 3T3SA cells co-transfected with shRNA-resistant RIP3 D161G mutant pre-tranfected for 16 hrs followed by compound addition and measured after 18 hrs in presence of zVAD by Cell Titer-Glo luminescent cell viability assay; format: toxicity, cell-based
[13] = tested on: 3T3SA; experiment: Induction of apoptosis in mouse 3T3SA cells assessed as increase in caspase 8 proteolytic activity incubated for 2.5 hrs; format: toxicity, cell-based
[14] = tested on: L929; experiment: Induction of apoptosis in mouse L929 cells transfected with RIP3 shRNA at 10 uM incubated for 18 hrs by Cell Titer-Glo luminescent cell viability assay; format: toxicity, cell-based; settings: l929, 18 h
[15] = tested on: SVEC4-10; experiment: Inhibition of DAI-induced necroptosis in wildtype MCMV infected mouse SVEC4-10 cells assessed as increase in cell viability at 10 uM incubated for 18 hrs by Cell Titer-Glo luminescent cell viability assay; format: functional, cell-based
[16] = tested on: 3T3SA; experiment: Induction of apoptosis in mouse 3T3SA cells in presence of vIRA by Cell Titer-Glo luminescent cell viability assay; format: toxicity, cell-based
[17] = tested on: 3T3SA; experiment: Induction of apoptosis in mouse 3T3SA cells assessed as cell death by measuring percent of PI positive cells incubated for 3 hrs by PI staining based flow cytometric analysis (reference value: 10.7%); format: toxicity
[18] = tested on: MEF; experiment: Inhibition of necroptosis in MEF cells expressing RIP1 K45A/K45A mutant incubated for 18 hrs by Cell Titer-Glo luminescent cell viability assay; format: functional, cell-based; settings: Mus musculus
[19] = tested on: 3T3SA; experiment: Induction of apoptosis in mouse 3T3SA cells transfected with RIP3 shRNA at 10 uM incubated for 18 hrs by Cell Titer-Glo luminescent cell viability assay; format: toxicity, cell-based
[20] = tested on: 3T3SA; experiment: Induction of apoptosis in mouse 3T3SA cells assessed as cell death by measuring percent of PI positive cells incubated for 8 hrs in presence of zVAD by PI staining based flow cytometric analysis (reference value: 11.4%); format: toxicity
[21] = tested on: 3T3SA; experiment: Induction of apoptosis in mouse 3T3SA cells transfected with RIP1 siRNA assessed as accumulation of cleaved caspase 3 incubated for 0.5 to 1.5 hrs by immunoblot analysis; format: toxicity, cell-based; settings: time 0.5-1.5 hrs
[22] = tested on: L929; experiment: Inhibition of TLR-3 induced necroptosis in mouse L929 cells assessed as increase in cell viability at 1 uM incubated for 18 hrs in presence of poly(I:C) by Cell Titer-Glo luminescent cell viability assay; format: functional, cell-based
[23] = tested on: MEF; experiment: Induction of apoptosis in RIP-/- MEF cells incubated for 18 hrs by Cell Titer-Glo luminescent cell viability assay; format: toxicity, cell-based; settings: mouse
[24] = tested on: 3T3SA; experiment: Inhibition of necroptosis in mouse 3T3SA cells incubated for 18 hrs in presence of Nec-1 by Cell Titer-Glo luminescent cell viability assay; format: functional, cell-based
[25] = tested on: 3T3SA; experiment: Induction of apoptosis in mouse 3T3SA cells incubated for 18 hrs in presence of Nec-1 by Cell Titer-Glo luminescent cell viability assay; format: toxicity, cell-based
[26] = tested on: 3T3SA; experiment: Induction of apoptosis in RIP3shRNA transfected mouse 3T3SA cells co-transfected with shRNA-resistant RIP3 mutRHIM pre-tranfected for 16 hrs followed by compound addition and measured after 18 hrs in presence of zVAD by Cell Titer-Glo luminescent cell viability assay; format: toxicity, cell-based
[27] = tested on: MEF; experiment: Induction of apoptosis in RIP3-/- MEF cells expressing dox-induced wildtype RIP3 assessed as RIP1-FADD association incubated for 1 hrs by immunoblot analysis; format: toxicity, cell-based; settings: mouse
[28] = tested on: SVEC4-10; experiment: Induction of apoptosis in mouse SVEC4-10 cells transfected with RIP3 shRNA at 10 uM incubated for 18 hrs by Cell Titer-Glo luminescent cell viability assay; format: toxicity, cell-based; settings: svec4-10, 18 h
[29] = tested on: 3T3SA; experiment: Induction of apoptosis in mouse 3T3SA cells incubated for 18 hrs in presence of zVAD by Cell Titer-Glo luminescent cell viability assay; format: toxicity, cell-based
[30] = tested on: 3T3SA; experiment: Induction of apoptosis in mouse 3T3SA cells transfected with RIP1 siRNA assessed as accumulation of cleaved caspase 8 incubated for 0.5 to 1.5 hrs by immunoblot analysis; format: toxicity, cell-based; settings: time 0.5-1.5 hrs
[31] = tested on: 3T3SA; experiment: Induction of apoptosis in mouse 3T3SA cells incubated for 18 hrs in presence of BHA by Cell Titer-Glo luminescent cell viability assay; format: toxicity, cell-based
[32] = tested on: 3T3SA; experiment: Induction of apoptosis in mouse 3T3SA cells transfected with Caspase8 siRNA assessed as cleaved caspase 8 accumulation incubated for 2.5 hrs by immunoblot analysis; format: toxicity, cell-based
[33] = target: Ephrin type-A receptor 6 (Homo sapiens) (UniProt Q9UF33); experiment: Inhibition of human EPHA6 using poly[Glu:Tyr] (4:1) as substrate at 1 uM in presence of 32P-ATP by Hotspot assay relative to control; values are per cent of control
Sequence of Ephrin type-A receptor 6 (Homo sapiens) (Q9UF33 whole entry): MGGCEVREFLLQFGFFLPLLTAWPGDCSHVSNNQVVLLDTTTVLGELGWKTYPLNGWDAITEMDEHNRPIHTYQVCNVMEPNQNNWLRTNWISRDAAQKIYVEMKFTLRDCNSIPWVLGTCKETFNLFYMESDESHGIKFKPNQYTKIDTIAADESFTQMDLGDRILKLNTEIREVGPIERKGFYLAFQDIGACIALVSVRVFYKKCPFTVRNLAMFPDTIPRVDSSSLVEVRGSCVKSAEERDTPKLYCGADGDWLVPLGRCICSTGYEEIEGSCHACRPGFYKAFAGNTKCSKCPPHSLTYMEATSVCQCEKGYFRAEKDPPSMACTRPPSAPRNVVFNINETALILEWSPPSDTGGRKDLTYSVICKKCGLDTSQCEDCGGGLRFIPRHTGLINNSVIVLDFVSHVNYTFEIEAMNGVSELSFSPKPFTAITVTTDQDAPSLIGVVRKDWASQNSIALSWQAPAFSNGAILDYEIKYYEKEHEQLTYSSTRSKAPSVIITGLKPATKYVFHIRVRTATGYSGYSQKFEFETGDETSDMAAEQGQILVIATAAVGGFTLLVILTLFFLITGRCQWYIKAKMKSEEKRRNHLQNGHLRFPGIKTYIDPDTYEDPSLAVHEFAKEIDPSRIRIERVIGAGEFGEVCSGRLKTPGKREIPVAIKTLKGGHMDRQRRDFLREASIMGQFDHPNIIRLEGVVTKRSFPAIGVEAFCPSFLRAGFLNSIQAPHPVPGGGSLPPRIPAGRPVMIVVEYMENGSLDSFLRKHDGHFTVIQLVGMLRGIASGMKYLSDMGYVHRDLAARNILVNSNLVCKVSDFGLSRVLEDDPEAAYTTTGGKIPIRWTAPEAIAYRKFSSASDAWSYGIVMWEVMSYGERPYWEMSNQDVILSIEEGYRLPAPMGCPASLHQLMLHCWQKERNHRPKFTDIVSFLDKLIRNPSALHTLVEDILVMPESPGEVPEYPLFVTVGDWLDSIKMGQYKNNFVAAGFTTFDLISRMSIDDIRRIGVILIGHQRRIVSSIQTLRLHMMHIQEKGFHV

[34] = target: Serine/threonine-protein kinase 38 (Homo sapiens) (UniProt Q15208); experiment: Inhibition of human STK38/NDR1 using KKRNRRLSVA as substrate at 1 uM in presence of 32P-ATP by Hotspot assay relative to control; values are per cent of control
Sequence of Serine/threonine-protein kinase 38 (Homo sapiens) (Q15208 2-465 limits assumed): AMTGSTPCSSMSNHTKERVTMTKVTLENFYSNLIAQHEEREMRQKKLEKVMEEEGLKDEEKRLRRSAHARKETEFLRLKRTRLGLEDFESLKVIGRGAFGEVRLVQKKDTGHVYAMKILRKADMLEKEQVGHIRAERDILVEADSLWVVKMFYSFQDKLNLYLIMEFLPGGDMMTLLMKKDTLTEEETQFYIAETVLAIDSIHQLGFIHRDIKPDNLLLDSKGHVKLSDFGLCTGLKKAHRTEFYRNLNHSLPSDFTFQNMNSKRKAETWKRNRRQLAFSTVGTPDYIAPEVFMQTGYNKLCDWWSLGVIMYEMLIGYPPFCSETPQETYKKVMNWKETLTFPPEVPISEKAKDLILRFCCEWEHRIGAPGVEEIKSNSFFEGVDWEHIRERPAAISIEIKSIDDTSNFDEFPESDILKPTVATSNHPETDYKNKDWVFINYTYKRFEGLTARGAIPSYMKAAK

With `CC(C)S(=O)(=O)c1ccc2nccc(Nc3ccc4scnc4c3)c2c1` the Activity [1] was “Non-Toxic”, the Activity [2] was “Toxic” and the Activity [3] was 12.1%. The Activity [4] was “Non-Toxic”, the Activity [5] was “Toxic” and the Activity [6] was “Non-Toxic”. The inhibition [7] was “inactive”, the Activity [8] was “Non-Toxic” and the Activity [9] was “Toxic”. For the same compound, the Activity [10] was “Non-Toxic”, the inhibition [11] was “inactive” and the Activity [12] was “Non-Toxic”. For the same compound, the Activity [13] was “Toxic”, the Activity [14] was “Non-Toxic” and the inhibition [15] was “inactive”. For the same compound, the Activity [16] was “Non-Toxic”, the Activity [17] was 24% and the inhibition [18] was “Active”. The Activity [19] was “Non-Toxic”, the Activity [20] was 11% and the Activity [21] was “Non-Toxic”. For the same compound, the inhibition [22] was “Active”, the Activity [23] was “Non-Toxic” and the inhibition [24] was “Active”. For the same compound, the Activity [25] was “Non-Toxic”, the Activity [26] was “Non-Toxic” and the Activity [27] was “Toxic”. The Activity [28] was “Non-Toxic”, the Activity [29] was “Non-Toxic” and the Activity [30] was “Non-Toxic”. The Activity [31] was “Toxic” and the Activity [32] was “Non-Toxic”.

With `CNC(=O)c1ccc2c(c1)ncn2-c1ccc(CC(=O)OC(C)(C)C)cc1` the residual activity [33] was 88.9% and the residual activity [34] was 96.4%.
